Reference: patent publication US20260241043A1, “Carrier Peptide Fragment and Use Thereof” (TOAGOSEI CO., LTD., priority 2022, published 2026)
Primed or numbered codes have the meaning given here. FAM″ = C-terminal FAM dye

Each substance was assayed on NSC-34 cells (assay: Evaluation on cell membrane permeability by flow cytometry). Conditions: 10 μM additive, 0.5% DMSO, 20 hours incubation at 37° C., fluorescence detector FL2.
Type: cell-based, mouse
Protocol: As the eukaryotic cells, NSC-34 cells (mouse motor neuron-like hybrid cell line) were used and the cell membrane permeability of the constructs 1 to 3 was analyzed. In Examples 1 to 3, the prepared samples 1 to 3 were used, respectively, and in Example 4, a FAM solution was used.
The NSC-34 cells were cultured in 10% fetal bovine serum (FBS)-containing Dulbecco's modified Eagle's medium (DMEM (Cat No. 044-29765, manufactured by FUJIFILM Wako Pure Chemical Corporation)), which is a normal culture medium.
The NSC-34 cells that adhered to a culture plate were cleaned with PBS and then, a 0.25%-trypsin/EDTA solution was added thereto, and incubation was performed for three minutes at 37° C. After the incubation, the aforementioned 10% FBS-containing DMEM was added to deactivate trypsin and then, five-minute centrifugal separation was performed at 150×g to precipitate the cells. After the supernatant generated by the centrifugal separation was removed, the 10% FBS-containing DMEM was added to the precipitate (cell pellet) to prepare a cell suspension of about 2× 10^5 cells/mL. The cell suspension was added by 1 mL to a well of a commercially available six-hole (well) plate (manufactured by AGC TECHNO GLASS Co., Ltd.) so as to seed the cell (about 2× 10^5 cells/well). In addition, the 2 mM sample solution 1 was diluted with the 10% FBS-containing DMEM to prepare the sample solution 1 in which the concentration of the sample 1 was 20 μM. […]
Regarding the obtained cells (cell pellet), the cell membrane permeability of the sample 1 was analyzed using a flow cytometer. […]
Using the aforementioned flow cytometer, gating based on forward scatter (FSC) and side scatter (SSC) was performed to set a gate about a cell group to be analyzed, and the fluorescence intensity was measured about the cell group in this gate. […] The fluorescence intensity was measured using a fluorescence detector FL2 of the flow cytometer (optimum detection wavelength around 543 nm) capable of detecting the fluorescence wavelength of FAM. […]

Substance | MFI (median fluorescence intensity)
Ac-RkkRNSkRLTRkk-FAM [Example 3] | 27.3
Ac-rKKrNSKrLTrKK-FAM [Example 2] | 37.7
Ac-RKKRNSKRLTRKK-FAM (Ac-RKKRNSKRLTRKK-{FAM″}) [Example 1, N-terminally acetylated peptide 1 (all L-form) with FAM fluorescent dye bonded to the C-terminus] | 14.6
